From PubChem BioAssay AID330 (DTP/NCI, 2004) come the findings set out here.

Inconclusive results and toxic doses are left out. Peptide text beside a SMILES is read from it.

The test system of this assay is P388 leukemia ip, CD2F1 mice, survival T/C. As to the kind of experiment: NCI In Vivo Anticancer Drug Screen. Data for tumor model P388 Leukemia (intraperitoneal) in CD2F1 (CDF1) mice. Particulars: endpoint: median survival time, higher = longer survival. Put shortly: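 Mice carrying the transplanted tumor received test compound or vehicle. Survival was recorded in each group, and the value is the treated-group measurement divided by that of the vehicle-treated control group.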

Where [1] appears, read: dose: 100.0 mg/kg/injection, schedule: Q04DX003 (ip), vehicle: saline with Tween-80.
The mark [2] stands for this setting: dose: 200.0 mg/kg/injection, schedule: Q04DX003 (ip), vehicle: saline with Tween-80.
Setting [3] is: dose: 50.0 mg/kg/injection, schedule: Q01DX005 (ip), vehicle: saline.
Setting [4] is: dose: 100.0 mg/kg/injection, schedule: Q01DX005 (ip), vehicle: saline.
[5] abbreviates: dose: 200.0 mg/kg/injection, schedule: Q01DX005 (ip), vehicle: saline.
[6] abbreviates: dose: 100.0 mg/kg/injection, schedule: Q01DX009 (ip), vehicle: saline with Tween-80.
The mark [7] stands for this setting: dose: 200.0 mg/kg/injection, schedule: Q01DX009 (ip), vehicle: saline with Tween-80.
[8] abbreviates: dose: 50.0 mg/kg/injection, schedule: Q01DX009 (ip), vehicle: saline with Tween-80.
[9] abbreviates: dose: 12.5 mg/kg/injection, schedule: Q01DX009 (ip), vehicle: saline with Tween-80.
The mark [10] stands for this setting: dose: 25.0 mg/kg/injection, schedule: Q01DX009 (ip), vehicle: saline with Tween-80.

As for `COc1ccc2c(c1)s/c(=N/N)n2CCCS(=O)(=O)O`, the T/C is, setting by setting: (dose: 50.0 mg/kg/injection, schedule: Q01DX009 (ip), vehicle: saline) 109 % of control; (dose: 100.0 mg/kg/injection, schedule: Q01DX009 (ip), vehicle: saline) 103 % of control; (dose: 200.0 mg/kg/injection, schedule: Q01DX009 (ip), vehicle: saline) 110 % of control.
On to `CCC(C)(C)N=C(Nc1cccnc1)Nc1nccs1`, for which the T/C is 92 % of control under setting [1]; 94 % of control under setting [2]; 87 % of control (dose: 400.0 mg/kg/injection, schedule: Q04DX003 (ip), vehicle: saline with Tween-80).
In the case of `CC(N)C(=O)NC(Cc1ccc(O)cc1)C(=O)NC(Cc1ccccc1)C(N)=O` (stereo not drawn) (H-Ala-Tyr-Phe-NH2; configuration not given here), the T/C under setting [3] was 102 % of control, the T/C under setting [4] was 101 % of control and the T/C under setting [5] is 101 % of control.
Consider `CC(C)(C)c1cc(C(C)(C)O)c2c(c1)C(C)(C)OS2(C)Cl` (centres undefined), for which, for the setting “dose: 50.0 mg/kg/injection, schedule: Q04DX003 (ip), vehicle: saline with Tween-80”, the T/C is 104 % of control.
`Nc1n[nH]c(=O)n1N`: the T/C is 106 % of control (dose: 100.0 mg/kg/injection, schedule: Q01DX001 (ip), vehicle: Klucel (hydroxypropylcellulose) (HPC)); 100 % of control (dose: 200.0 mg/kg/injection, schedule: Q01DX001 (ip), vehicle: Klucel (hydroxypropylcellulose) (HPC)); 107 % of control (dose: 400.0 mg/kg/injection, schedule: Q01DX001 (ip), vehicle: Klucel (hydroxypropylcellulose) (HPC)).
As to `CC1(CCOCc2ccccc2)NC(=O)NC1=O` (centres undefined), the T/C is 90 % of control under setting [6]; 100 % of control under setting [7]; 100 % of control (dose: 400.0 mg/kg/injection, schedule: Q01DX009 (ip), vehicle: saline with Tween-80).
`C=C1C(=O)OC2(C)CCCCC12` (centres undefined): the T/C runs as follows: (dose: 50.0 mg/kg/injection, schedule: Q01DX009 (ip), vehicle: Klucel (hydroxypropylcellulose) (HPC)) 92 % of control; (dose: 100.0 mg/kg/injection, schedule: Q01DX009 (ip), vehicle: Klucel (hydroxypropylcellulose) (HPC)) 100 % of control; (dose: 200.0 mg/kg/injection, schedule: Q01DX009 (ip), vehicle: Klucel (hydroxypropylcellulose) (HPC)) 93 % of control.
Consider `Cc1cccc2c(NCCCCCCNc3cc(C)[n+](C)c4c(C)cccc34)cc(C)[n+](C)c12`, for which the T/C was 112 % of control (dose: 3.12 mg/kg/injection, schedule: Q01DX005 (ip), vehicle: suspension in saline); 106 % of control (dose: 6.25 mg/kg/injection, schedule: Q01DX005 (ip), vehicle: suspension in saline); 112 % of control (dose: 12.5 mg/kg/injection, schedule: Q01DX005 (ip), vehicle: suspension in saline).
On to `O=[N+]([O-])c1ccc(/C=[N+](\[O-])CCO)cc1`, for which the T/C is, setting by setting: under setting [6], 99 % of control; under setting [7], 92 % of control.
Take `CC12C(=O)C(c3ccccc3)(C(c3ccccc3)=C1c1ccccc1)C1OC(=O)OC12` (centres undefined): the T/C was 95 % of control under setting [8] and 91 % of control under setting [6].
Regarding `N#CC1(c2ccccc2)OC1(C#N)c1ccccc1` (centres undefined), the T/C under setting [9] is 96 % of control; the T/C under setting [10] was 101 % of control; the T/C (dose: 37.5 mg/kg/injection, schedule: Q01DX009 (ip), vehicle: acetone) was 96 % of control; the T/C under setting [8] was 93 % of control; the T/C (dose: 75.0 mg/kg/injection, schedule: Q01DX009 (ip), vehicle: acetone) is 95 % of control; the T/C (dose: 150.0 mg/kg/injection, schedule: Q01DX009 (ip), vehicle: acetone) is 113 % of control.
As to `O=C1CC(O)(c2ccccc2)CCS1` (centres undefined), the T/C is 99 % of control (dose: 100.0 mg/kg/injection, schedule: Q04DX003 (ip), vehicle: Klucel (hydroxypropylcellulose) (HPC)); 107 % of control (dose: 200.0 mg/kg/injection, schedule: Q04DX003 (ip), vehicle: Klucel (hydroxypropylcellulose) (HPC)); 106 % of control (dose: 400.0 mg/kg/injection, schedule: Q04DX003 (ip), vehicle: Klucel (hydroxypropylcellulose) (HPC)).
With `Cc1c(-c2nc(N)nc(C3CC3)c2C)nc(N)nc1C1CC1`, the T/C is 102 % of control (dose: 60.0 mg/kg/injection, schedule: Q01DX005 (ip), vehicle: saline) and 100 % of control (dose: 120.0 mg/kg/injection, schedule: Q01DX005 (ip), vehicle: saline).
With `O=CNC(Cc1cnc[nH]1)C(=O)O` (centres undefined), the T/C by setting is: (dose: 50.0 mg/kg/injection, schedule: Q01DX005 (ip), vehicle: saline with Tween-80) 100 % of control; (dose: 100.0 mg/kg/injection, schedule: Q01DX005 (ip), vehicle: saline with Tween-80) 98 % of control; (dose: 200.0 mg/kg/injection, schedule: Q01DX005 (ip), vehicle: saline with Tween-80) 97 % of control.
For the compound `CC1(C)OC2C(COC(=O)c3ccc([N+](=O)[O-])cc3)OC(NC(=O)N(CCCl)N=O)C2O1` (centres undefined), the T/C reads like this: (dose: 0.09 mg/kg/injection, schedule: Q01DX009 (ip), vehicle: saline with Tween-80) 119 % of control; (dose: 0.19 mg/kg/injection, schedule: Q01DX009 (ip), vehicle: saline with Tween-80) 119 % of control; (dose: 0.39 mg/kg/injection, schedule: Q01DX009 (ip), vehicle: saline with Tween-80) 119 % of control; (dose: 1.56 mg/kg/injection, schedule: Q01DX009 (ip), vehicle: saline with Tween-80) 153 % of control; (dose: 3.12 mg/kg/injection, schedule: Q01DX009 (ip), vehicle: saline with Tween-80) 174 % of control; under setting [9], 202 % of control. Besides, the T/C is, setting by setting: under setting [10], 272 % of control; under setting [8], 282 % of control; under setting [6], 154 % of control; under setting [7], 109 % of control.
Consider `CN(C)CCNc1cccc2c1C(=O)c1cccc(NCCN(C)C)c1C2=O`, for which the T/C runs as follows: (dose: 1.88 mg/kg/injection, schedule: Q01DX009 (ip), vehicle: water) 99 % of control; (dose: 3.75 mg/kg/injection, schedule: Q01DX009 (ip), vehicle: saline) 101 % of control; (dose: 3.75 mg/kg/injection, schedule: Q01DX009 (ip), vehicle: water) 98 % of control; (dose: 7.5 mg/kg/injection, schedule: Q01DX009 (ip), vehicle: saline) 102 % of control; (dose: 7.5 mg/kg/injection, schedule: Q01DX009 (ip), vehicle: water) 110 % of control; (dose: 15.0 mg/kg/injection, schedule: Q01DX009 (ip), vehicle: saline) 98 % of control. Besides, the T/C (dose: 15.0 mg/kg/injection, schedule: Q01DX009 (ip), vehicle: water) was 108 % of control and the T/C (dose: 30.0 mg/kg/injection, schedule: Q01DX009 (ip), vehicle: water) was 106 % of control.
With `CCO/C=C1\SC(=S)N(c2ccccc2C)C1=O`, the T/C (dose: 2.5 mg/kg/injection, schedule: Q03HX024 (ip), vehicle: saline with Tween-80) was 105 % of control; the T/C (dose: 5.0 mg/kg/injection, schedule: Q03HX024 (ip), vehicle: saline with Tween-80) is 107 % of control; the T/C (dose: 10.0 mg/kg/injection, schedule: Q03HX024 (ip), vehicle: saline with Tween-80) is 117 % of control; the T/C (dose: 14.6 mg/kg/injection, schedule: Q01DX009 (ip), vehicle: saline with Tween-80) was 105 % of control; the T/C (dose: 22.0 mg/kg/injection, schedule: Q01DX009 (ip), vehicle: saline with Tween-80) was 105 % of control; the T/C under setting [6] was 160 % of control. Further, the T/C runs as follows: under setting [1], 116 % of control; under setting [2], 120 % of control.
`Cc1nnc(N)c(C#N)c1C`: the T/C runs as follows: under setting [3], 95 % of control; under setting [4], 104 % of control; under setting [5], 93 % of control.
